The test system of data set [1] is M. tuberculosis H37Rv. Description: Resazurin microtiter assay (REMA), MIC. It is filed as cell-based. The settings on record: for synergistic effect with ethambutol: in words; for MIC: Mycobacterium tuberculosis. (Resazurin is reduced to fluorescent resorufin, in cell work by metabolically active cells.)
Data set [2] deals with L929 cell line. Put plainly: MTT cell proliferation assay (in vitro toxicity). The class given is cell-based, mouse. The settings on record: for IC50: Mus musculus, L929, 120 h. Background: Tetrazolium assays rely on reduction of a dye to a coloured formazan, in cell work by metabolically active cells.
For data set [3] the following is noted: in words; Haebich & Von Nussbaum, 2009; cited from earlier work.
Data set [4] concerns M. bovis BCG. Put plainly: microbe, parasite or virus in culture. The class given is cell-based, Mycobacterium bovis BCG. The settings on record: for MIC With medium containing 50 % FBS / MIC in 100% medium: M. bovis BCG, resazurin assay; for MIC With medium containing 50 % FBS: 50 % fetal bovine serum; for MIC in 100% medium: no FBS; for MIC: Mycobacterium tuberculosis variant bovis BCG, BCG, read-out: MIC With medium containing 50 % FBS.

Where [5] appears, read: MTT assay after 5 days, individual substances.
[6] abbreviates: H37RV, REMA, individual substance, read-out: MIC (µg/ml) against M. tuberculosis H37Rv Individual substance.
The mark [7] stands for this setting: MTT assay after 5 days, individual substances, read-out: In vitro toxicity with L929 cell line IC50.
Setting [8] is: H37RV, read-out: MIC (µg/ml) against M. tuberculosis H37Rv With medium containing ethambutol.

In brackets after ≈: the same amount, converted by molar mass. Where two headings read alike, the source gives them in different places.

With `C/C=C/C/C=C(\C)C(O)CC/C(C)=C/C=C(\C)C(=O)c1c(O)cc([C@H](C)CC/C=C/NC(=O)OC)oc1=O` (stereo partly drawn) [Corallopyronin], in data set [1] (REMA, Ethambutol at Conc. 0.3 µg/ml in medium), the “MIC (µg/ml) against M. tuberculosis H37Rv With medium containing ethambutol” value came out at 12.5 µg/mL (≈ 23.7 µM). Further, the “MIC (µg/ml) against M. tuberculosis H37Rv Individual substance” value in data set [1] (REMA, individual substance) turned out to be 12.5 µg/mL (≈ 23.7 µM). Besides, in data set [1], the “synergistic effect with ethambutol” value is “did not show synergism with ethambutol”. Besides, the “In vitro toxicity with L929 cell line IC50” value in data set [2] (setting [5]) is 25 µg/mL. Besides, in data set [3], the serum protein binding entry was “high serum protein binding”.
Take `CC[C@@H](CO)NCCN[C@@H](CC)CO` [Ethambutol]: in data set [1] (setting [6]), the MIC stood at 1.6 µg/mL (≈ 7.83 µM). In addition, the IC50 in data set [2] (setting [7]) was over 100 µg/mL. Also, in data set [4], the “MIC With medium containing 50 % FBS” value was “not affected by the addition of the FBS”, the “MIC in 100% medium” value is listed as 2.5 and the MIC was found to be 2.5 µg/mL (≈ 12.2 µM).
Turning to `CCCC(C)=CC=C(C)C(=O)c1c(O)cc(C(C)CCC=CNC(=O)OC)oc1=O` (stereo not drawn) [Myxopyronin A], in data set [1] (H37RV), the FIC worked out at 0.64 and the “MIC (µg/ml) against M. tuberculosis H37Rv Individual substance” value came out at 6.25 µg/mL (≈ 15 µM). Further, the MIC in data set [1] (H37RV, read-out: MIC (µg/ml) against M. tuberculosis H37Rv Individual substance) was 6.25 µg/mL (≈ 15 µM). In data set [1] (setting [8]), the MIC turned out to be 3.12 µg/mL (≈ 7.48 µM). The “synergistic effect with ethambutol” value in data set [1] is “synergistic effect”. Further, the “In vitro toxicity with L929 cell line IC50 (µg/ml)” value in data set [2] (setting [5]) is recorded as “did not inhibit L929 cell proliferation at all tested concentrations”. Moreover, the IC50 in data set [2] (read-out: In vitro toxicity with L929 cell line IC50 (µg/ml)) is over 100 µg/mL. For the same compound, in data set [4], the “MIC With medium containing 50 % FBS” value is reported as “did not inhibit the growth of M. bovis BCG”, the “MIC in 100% medium” value came out at 6.25 and the MIC was over 25 µg/mL. In data set [3], the serum protein binding entry is reported as “high serum protein binding”.
Consider `C/C(=C\Cc1ccccc1)CCC(=O)C[C@H]1C[C@H](O)C/C(C)=C/C/C=C/C/C(CC(=O)O)=C\C(=O)O1` [Ripostatin], for which the MIC in data set [1] (setting [8]) and in data set [1] (setting [6]) was over 25 µg/mL each time. Besides, the “MIC (µg/ml) against M. tuberculosis H37Rv Individual substance” value was “no inhibition up to 25 µg/ml” in data set [1] (REMA, individual substance) and over 25 µg/mL in data set [1] (REMA, individual substance, listed as ripostatin). The “synergistic effect with ethambutol” value in data set [1] is “did not show synergism with ethambutol”. Further, in data set [2] (setting [7]), the IC50 was over 100 µg/mL.

(Values after patent EP2742937A1, “Compositions for use in the treatment of bacterial infections” (LIONEX Diagnostics and Therapeutics GmbH, priority 2012, dated 2014).)
